For assay [1], the system named is arachidonic acid-induced mouse ear edema. The experiment in a line: Mouse ear edema test (in vivo), arachidonic acid-induced. As to conditions: 1 mg topical, CD-1 male mice, 0.5 mg arachidonic acid 0.5 or 4 hours later, ear biopsy weight after 1 hour, read-out: EAR EDEMA % INHIB. 1 mg. How it is done:
MOUSE EAR EDEMA TEST (IN VIVO)
In this animal model system, the application of arachidonic acid to the ear results in the biosynthesis of the metabolic products […]-6,8,11,14-eicosatetraenoic acid (5-HETE), leukotriene B4 (LTB4), leukotriene C4 (LTC4), […]-5,8,10,14-eicosatetraenoic acid (12-HETE), and prostaglandin E2 (PGE2) at the site of application, followed by the influx of neutrophils into the site and the rapid development of edema within 30 to 60 minutes (See, for instance, Young, Wagner and Spries, "Tachyphylaxis in 12-O-Tetradecanoylphorbol Acetate And Arachidonic Acid-Induced Ear Edma," J. Invest. Dermatol. 80:48 (1983) and Hames, Opas and Bonney, "Arachidonic Acid MetaboIites in Mouse Ear Edma" Advances in Inflammation Research. 11:57 (1986).
CD-1 male mice weighing 15 to 25 g were employed, and they were designated as follows: (1) Control Group, in which no arachidonic acid or test compound was to be applied, (2) Arachidonic Acid-Treated Group, in which no test compound was to be applied, and (3) Treated Group, in which the test compound was to be applied first, followed by the application of arachidonic acid.
In the case of the Group (3) animals, the test compound, dissolved in acetone, was applied to the dorsal surface of the right ear of the mouse with a 25-microliter pipette or, with the dose of the test compound being varied. After 0.5 hours in some cases and 4 hours in others, the arachidonic acid was topically applied in the same manner as above to the pretreated ear areas. In each case of arachidonic acid application, an amount of 0.5 mg dissolved in 25 microliters of acetone was used. After 1 hour, the mice were sacrificed by carbon dioxide inhalation. A 6mm-diameter standard biopsy punch was used to obtain a uniform tissue sample from the ear of each mouse so treated, and the tissue samples were weighted to the nearest 0.1 mg. The percent inhibition of ear edema formation was calculated as follows: [formula]

For assay [2], the target named is superoxide-dependent, iron-promoted lipid peroxidation of native rat heart cardiac lipid liposomes. The assay can be described thus: Lipid peroxidation inhibition (in vitro testing of antiperoxidative agents, ANTI-OX), hypoxanthine-xanthine oxidase-Fe3+.ADP, rat cardiac liposomes, MDA equivalents. In kind it is biochemical. The conditions noted are these: 60 min, 37° C., screened at 1.0 μM, IC50 determined if inhibition ≥ 50%, read-out: ANTI-OX IC-50. How it is done:
The test system employs hypoxanthine-xanthine oxidase (XO)-Fe^3+. ADP as the free radical generator and purified, native rat-heart membrane phosphoglyceride in Hepes-KCl buffer, pH 7.4, as the substrate. Inhibition of superoxide-dependent, iron-promoted lipid peroxidation in the linear reaction phase (after 1 hour of reaction) is measured as the net formation of thiobarbituric acid (TBA)-reactive material. In this system, the TBA-reactive material, isolated by HPLC, is exclusively (>95%) malondialdehyde (MDA), a fragmentation end-product arising from fatty acyl hydroperoxides and cyclic endoperoxides. […]
a) Isolation and purification of Rat Cardiac Lipid
Conscious male Sprague-Dawley rats (~275g) maintained on a normal rodent diet were decapitated. The hearts were rapidly removed and perfused via the aorta with ice-cold 10 mM Hepes buffer, pH 7.4. The aorta and atria were removed, and the ventricular tissue was blotted and weighed (wet weight). The hearts were minced on ice with scissors and finally homogenized (100 mg tissue/ml ice-cold buffer) for 15 seconds (3×5 seconds) with a Tekmar Tissumizer at "maximal" setting. The homogenate was filtered through 4-ply cheesecloth, and homogenate lipids were extracted and purified by a modified Bligh-Dyer procedure (M.D. Marshall and M. Kates, Biochem. Biophys. Acta 260, 558 (1972). The cardiac lipids were stored in CHCl3 under nitrogen at -20° C. […]
b) Preparation of Cardiac Liposomes
Liposomes were prepared from extracted and purified, native rat heart cardiac lipid and were used as substrate for free-radical attack. Cardiac lipid (in CHCl3) was placed in a glass flask and evaporated to dryness under nitrogen at room temperature; the flask was gently rotated during evaporation to yield a thin, dry lipid film. The lipid was taken up in 10 mM Hepes-0.145M KCl, pH 7.4, and was resuspended by indirect an aerobic sonification for 15 minutes at room temperature. The liposome suspension was used immediately. […]
c) preparation of Fe^3+ -ADP Chelate
A chelate was formed in Hepes-KCl buffer between Fe^3+ (1.0mM FeCl3, final concentration) and ADP (10mM, final concentration) at pH 7.4 with stirring at room temperature. Chelation was allowed to proceed for 90 minutes prior to use. The chelate was prepared fresh for each days experiments to ensure iron solubility, effective chelation, and valence state. […]
d) Thiobarbituric Acid Reaction or Determination of Malondialdehvde Equivalents Malondialdehyde (MDA) equivalents were measured as thiobarbituric acid (TBA)-reactive material by the following modification of published methods. The reaction mixture. prepared fresh daily, contained water: BHT ([…] BHT in absolute ethanol): TBA (1.5% TBA in 0.2M Tris, pH 7.0) in the volume ratio 1:1:5. To each 1.0 ml of peroxidation reaction assayed (see below), 0.35 ml reaction mixture was added. After thorough mixing, the tubes were incubated in an 80° C. shaking water bath for 30 minutes. After this time, the tubes were plunged into an ice water bath, and the reaction was immediately stopped with 0.5 ml ice-cold 91% TCA followed by 2.0 ml CHCl3 After centrifugation for 30 minutes at 2000 rpm in a Sorval HL-8 rotor (4° C.), the absorbance of the washed, pink upper phase was read at 532 nm. A standard curve (0.8-40.0 nmol MDA) was run with every assay. For each curve, MDA was freshly prepared by acidification of 1,1,3,3 -tetraethoxypropane with 75% TCA-2.3N HCl (0.15 ml acid mixture with 1.0 ml suitably diluted tetraethoxypropane). Computer-assisted regression analysis of the standard curve was used to quantify the molar amounts of MDA equivalents in the experimental samples. […]
e) Lipid peroxidation Reaction
Cardiac liposomes were subjected to superoxidedependent. iron-promoted peroxidation in glass vessels to avoid the well-known antioxidant effects of many common polymerizing agents used to fabricate plastic labware. […]

Where only a bound is given, the exact number is not on record here.

In the case of `Cc1c(C)c2c(c(C)c1O)CCC(C)(C#Cc1ccc(OCc3ccccc3)c(O)c1)O2` (racemic) [Example 43, rac-3,4-Dihydro-2-{[3-hydroxy-4-(phenylmethoxY)phenyl]-ethynyl}-2,5,7,8-tetramethyl-2H-1-benzopyran-6-ol], the inhibition in vivo at 1 mg in assay [1] is 31%. Besides, the IC50 in assay [2] stood at 0.37 µM.
The corresponding values for `CC(=O)Oc1cc(C#CC2(C)CCc3c(C)c(O)c(C)c(C)c3O2)ccc1OCc1ccccc1` (racemic) [Example 41, rac-2-{[3-Acetyloxy-4-(phenylmethoxy)phenyl]ethynyl}-3,4-dihydro-2,5,7,8-tetramethyl-2H-1-benzopyran-6-ol] are 31% and 0.48 µM.
With `Cc1c(C)c2c(c(C)c1O)CCC(C)(c1cc3ccccc3o1)O2` (racemic) [Example 50 (CH; H, H, H), rac-2-(2-Benzofuranyl)-3,4-dihydro-2,5,7,8-tetramethyl-2H-1-benzopyran-6-ol], the inhibition in vivo at 1 mg in assay [1] stood at 68%. In assay [2], the IC50 turned out to be 1 µM.
The corresponding values for `Cc1c(C)c2c(c(C)c1O)CCC(C)(C#Cc1cccc(C(F)(F)F)c1)O2` (racemic) [Example 35, rac-2-{[3-(Trifluoromethyl)phenyl]ethynyl-3,4-dihydro-2,5,7,8-tetramethyl-2H-1-benzopyran-6-ol] are 15% and 0.8 µM.
In the same order, the values of `Cc1c(C)c2c(c(C)c1O)CC[C@](C)(C#Cc1cccs1)O2` [Example 5, (R)-3,4-Dihydro-2,5,7,8-tetramethyl-2-[(2-thienyl)ethynyl]-2H-1-benzopvran-6-ol] are 66% and 0.8 µM.
In the same order, the values of `Cc1ccc2oc(C3(C)CCc4c(C)c(O)c(C)c(C)c4O3)cc2n1` (racemic) [Example 51, rac-3,4-Dihydro-2-(5-methylfuro[3,2[b]pyridin-2-yl)-2,5,7,8-tetramethyl-2H-1-benzopyran-6ol] are 69% and over 1 µM.
Take `CCCc1c(O)c(C(C)=O)cc2cc(C3(C)CCc4c(C)c(O)c(C)c(C)c4O3)oc12` (racemic) [Example 53, rac-1-2-(3,4-Dihydro-6-hydroxy-2,5,7,8-tetramethyl-2H-1-benzopyran-2-yl)-6-hydroxy-7-propylbenzofuran-5-yl]ethanone]: the inhibition in vivo at 1 mg in assay [1] is 54%. The IC50 in assay [2] turned out to be 0.6 µM.
In the same order, the values of `Cc1c(C)c2c(c(C)c1O)CC[C@@](C)(C#Cc1cccs1)O2` [Example 13, (S)-3,4-Dihydro-2,5,7,8-tetramethyl-2-[(2-thienyl)ethynyl]-2H-1-benzopyran-6-ol] are 32% and over 1 µM.
With `Cc1c(C)c2c(c(C)c1O)CCC(C)(C#Cc1cccnc1)O2` (racemic) [Example 14, rac-3,4-Dihydro-2,5,7,8-tetramethyl-2-[(3-pyridinyl)ethynyl]-2H-1-benzopyran-6-ol], in assay [1], the inhibition in vivo at 1 mg turned out to be 20%. In addition, the IC50 in assay [2] stood at 0.6 µM.
In the case of `Cc1c(C)c2c(c(C)c1O)CCC(C)(CCc1cccs1)O2` (racemic) [Example 57, rac-3,4-Dihydro-2,5,7,8-tetramethyl-2-[2-(2-thienyl)ethyl]-2H-1-benzo-pyran-6-ol], in assay [1], the inhibition in vivo at 1 mg was 41%. In assay [2], the IC50 was over 1 µM.
In the same order, the values of `Cc1c(C)c2c(c(C)c1O)CCC(C)(c1cc3ncccc3o1)O2` (racemic) [Example 52, rac-3,4-Dihydro-2-(furo[3,2-b]pyridine-2-yl)-2,5,7,8-tetramethyl-2H-1-benzopyran-6-ol] are 49% and 0.95 µM.
The corresponding values for `CCCCc1ccc(C#CC2(C)CCc3c(C)c(O)c(C)c(C)c3O2)s1` (racemic) [Example 31, rac-2-[(5-Butyl-2-thienyl)ethynyl]-3,4-dihydro-2,5,7,8-tetramethyl-2H-1-benzopyran-6-ol] are 24% and 0.55 µM.
In the same order, the values of `Cc1c(C)c2c(c(C)c1O)CCC(C)(CCc1ccccn1)O2` (racemic) [Example 58, rac-3,4-Dihydro-2,5,7,8-tetramethyl-2-[2-(2-pyridinyl)ethyl]-2H-1-benzopyran-6-ol] are 31% and 0.7 µM.
Take `Cc1c(C)c2c(c(C)c1O)CCC(C)(C#Cc1cccs1)O2` (racemic) [Example 4, rac-3,4-Dihydro-2,5,7,8-tetramethyl-2-[(2-thienyl)ethynyl]-2H-1-benzopyran-6-ol]: the inhibition in vivo at 1 mg in assay [1] is 61%. In addition, the IC50 in assay [2] is 0.9 µM.
In the same order, the values of `Cc1c(C)c2c(c(C)c1O)CCC(C)(C#Cc1ccccc1)O2` (racemic) [Example 1, rac-3,4-Dihydro-2,5,7,8-tetramethyl-2-(phenylethynyl)-2H-1-benzopyran-6-ol] are 45% and 0.65 µM.
In the same order, the values of `Cc1c(C)c2c(c(C)c1O)CCC(C)(C#Cc1ccccn1)O2` (racemic) [Example 15, rac-3,4-Dihydro-2,5,7,8-tetramethyl1-2-[(2-pyridinyl)ethynyl]-2H-1-benzopyran-6-ol] are 18% and over 1 µM.
The corresponding values for `Cc1c(C)c2c(c(C)c1O)CCC(C)(C#Cc1csc3ccccc13)O2` (racemic) [Example 16, rac-[2-(Benzo[b]thiophen-3-yl)ethynyl]-3.4-dihydro-2,5,7,8-tetramethyl-2H-1-benzopyran-2H-1-benzopyran-6-ol] are 62% and 0.56 µM.
Turning to `Cc1c(C)c2c(c(C)c1O)CCC(C)(CCc1cccnc1)O2` (racemic) [Example 59, rac-3,4-Dihydro-2,5,7,8-tetramethyl-2-[2-(3-pyridinyl)ethyl]-2H-1-benzopyran-6-ol], in assay [1], the inhibition in vivo at 1 mg turned out to be 48%. In addition, the IC50 in assay [2] amounted to 0.5 µM.
Consider `Cc1c(C)c2c(c(C)c1O)CCC(C)(CCc1ccc(O)c(O)c1)O2` (racemic) [Example 61, rac-4-[2-(3,4-Dihydro-6-hydroxy-2,5,7,8-tetramethyl-2H-1-benzopyran-2-yl)ethyl]-1,2-benzenediol], for which the inhibition in vivo at 1 mg in assay [1] was 55%. In addition, the IC50 in assay [2] was over 1 µM.
